Earlier results as cited in US20160220518A1 (iCeutica, Inc., priority 2009, published 2016).

Details: in vivo

COc1ccc2cc([C@H](C)C(=O)O)ccc2c1 [naproxen]
excreted in the urine as 6-0-desmethyl naproxen: < 1%
excreted in the urine as naproxen: < 1%
fraction of any dose excreted in the urine: Approximately 95%
fraction of the administered dose excreted in the feces: ≤ 3%
